Measurements reported in ChEMBL document CHEMBL1201862, “PubChem BioAssay data set” (2004).
Calls of active or inactive are those of the source.

What was measured:
[1] = HCT116 cell viability decrease, GSK3B pretreatment – CellTiter-Glo, IC50, dose response (AID 1117339); type: functional; conditions: HCT-116
[2] = Reduced DLD-1 viability, concentration-response, CellTiter-Glo luminescence (AID 1117352); type: functional
[3] = cytotoxicity toward HT-29 cells – cell-based, CellTiter-Glo luminescence, IC50, dose response (AID 1117330); type: functional
[4] = SNU-C1 cell viability reduction, dose response, CellTiter-Glo luminescence (AID 1117323); type: functional, cell-based
[5] = CellTiter-Glo luminescence survival assay, SW480 colon tumor line, concentration-response curve, half-maximal inhibitory concentration (AID 1117338); type: functional
[6] = cytotoxicity toward HCT116 cells – cell-based, CellTiter-Glo luminescence, IC50, dose response (AID 1117332); type: functional; conditions: HCT-116
[7] = cytotoxicity toward Colo320 cells – cell-based, CellTiter-Glo luminescence, IC50, dose response (AID 1117334); type: functional; conditions: COLO 320
[8] = RKO cell viability reduction, dose response, CellTiter-Glo luminescence (AID 1117322); type: functional
Streptococcus = assay: GAS UMAA2166 growth inhibition – luminescence, BacTiterGlo, counter-screen for streptokinase expression inhibitor project, dose response (AID 1915); type: functional, organism-based;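 also: potency for reduction of bacterial viability or growth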
[9] = off-target signal loss in HeLa-CEM21 co-culture – HeLa F-luc CTL cells, cherry-picked, counter-screen for HIV-1 Env fusion inhibitor project, dose response (AID 652040); type: functional, cell-based;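 also: potency for signal decrease marking cytotoxic or nonspecific inhibition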
Streptokinase A = molecular target: T1, Streptokinase A (Streptococcus pyogenes serotype M1, UniProt P10520); assay: viability-normalized secreted streptokinase activity reduction – plasminogen activation absorbance, OD405, dose response (AID 1914); type: functional, Streptococcus pyogenes M1 GAS;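 also: secreted streptokinase activity via plasminogen activation per viability signal from cell pellet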
T1 sequence (P10520 whole entry): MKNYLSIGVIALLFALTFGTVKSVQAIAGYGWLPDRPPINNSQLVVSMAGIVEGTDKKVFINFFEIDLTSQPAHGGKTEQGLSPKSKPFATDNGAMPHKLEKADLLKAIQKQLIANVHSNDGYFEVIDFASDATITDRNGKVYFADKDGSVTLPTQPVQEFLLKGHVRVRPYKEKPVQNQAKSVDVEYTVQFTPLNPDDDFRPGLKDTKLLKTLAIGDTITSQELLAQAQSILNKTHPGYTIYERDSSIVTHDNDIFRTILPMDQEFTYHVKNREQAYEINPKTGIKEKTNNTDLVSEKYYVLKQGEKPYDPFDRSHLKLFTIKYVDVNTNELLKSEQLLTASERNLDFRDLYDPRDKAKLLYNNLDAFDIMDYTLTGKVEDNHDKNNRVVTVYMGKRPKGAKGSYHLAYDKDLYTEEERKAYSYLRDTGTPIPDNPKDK

[10] = system: Streptococcus sp. 'group A'; assay: Streptococcus pyogenes SK(-)GAS viability under kanamycin – luminescence, BacTiterGlo, confirmation, counter-screen for streptokinase expression inhibitor project, dose response (AID 1900); type: functional, organism-based
[11] = viability loss in CEM21 cells – cell-based, CellTiter-Glo luminescence, cherry-picked, cytotoxicity control for viral fusion inhibitor project, dose response (AID 652042); type: functional;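 also: potency for signal decrease meaning cytotoxicity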
[12] = blockers of HIV-1 envelope-mediated cell-cell fusion – cherry-pick, dose response (AID 652057); type: functional, cell-based
[13] = molecular target: NAD-dependent protein deacylase sirtuin-5, mitochondrial (Homo sapiens, UniProt Q9NXA8); assay: sirtuin-5 deacylation blockers, concentration series – biochemical, fluorescence imaging, cherry-pick, set 5, dose response (AID 720591);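 also: desuccinylation of succinyl peptide AMC substrate read as fluorescence after trypsin release; potency of inhibitors that lower fluorescence and may act on trypsin instead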
[14] = molecular target: 5-hydroxytryptamine receptor 2A (Mus musculus, UniProt P35363); type: functional, cell-based;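 also: CHO-K1 cells with tagged receptor and beta-arrestin; agonist potency measured as compound-induced activation of the receptor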
Mu-type opioid receptor = Mu-type opioid receptor (Homo sapiens, UniProt P35372); type: functional, cell-based;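 also: U2OS cells with beta-arrestin recruitment to OPRM1 by beta-gal complementation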
[15] = molecular target: T2, Long-chain-fatty-acid--AMP ligase FadD28 (Mycobacterium tuberculosis, UniProt P9WQ59); assay: Fluorescence polarization aasay to screen for inhibitors that compete for the binding of FadD28 to a bisubstrate Measured in Biochemical System Using Plate Reader - 2147-01_Inhibitor_Dose_CherryPick_Activity.; type: functional, Mycobacterium tuberculosis H37Rv
T2 sequence (P9WQ59 whole entry): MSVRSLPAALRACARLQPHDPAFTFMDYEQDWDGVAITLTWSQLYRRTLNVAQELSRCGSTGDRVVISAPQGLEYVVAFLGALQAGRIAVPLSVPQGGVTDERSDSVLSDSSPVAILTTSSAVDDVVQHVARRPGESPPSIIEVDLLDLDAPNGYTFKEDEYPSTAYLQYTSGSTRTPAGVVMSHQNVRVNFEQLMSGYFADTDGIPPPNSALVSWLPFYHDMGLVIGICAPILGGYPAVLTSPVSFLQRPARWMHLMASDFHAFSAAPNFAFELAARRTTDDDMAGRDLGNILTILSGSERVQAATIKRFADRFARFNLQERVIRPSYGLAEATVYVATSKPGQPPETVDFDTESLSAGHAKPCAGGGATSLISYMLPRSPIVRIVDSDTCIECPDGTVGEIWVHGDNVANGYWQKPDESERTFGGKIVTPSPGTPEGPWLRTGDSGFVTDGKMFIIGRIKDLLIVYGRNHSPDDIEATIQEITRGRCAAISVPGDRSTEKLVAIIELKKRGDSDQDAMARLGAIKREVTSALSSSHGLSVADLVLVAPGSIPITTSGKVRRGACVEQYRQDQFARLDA

[16] = molecular target: T3, Heat shock factor protein 1 (Mus musculus, UniProt P38532); assay: decrease of HSF1-responsive luciferase luminescence – cell-based, NIH3T3, dose retest, confirmation (AID 2382); type: functional;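 also: NIH3T3 fibroblasts with HSF1-driven luciferase reporter stressed by proteasome inhibitor MG132; luminescence from HSF1-driven luciferase expression after 8 hours of MG132 stress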
T3 sequence (P38532 whole entry): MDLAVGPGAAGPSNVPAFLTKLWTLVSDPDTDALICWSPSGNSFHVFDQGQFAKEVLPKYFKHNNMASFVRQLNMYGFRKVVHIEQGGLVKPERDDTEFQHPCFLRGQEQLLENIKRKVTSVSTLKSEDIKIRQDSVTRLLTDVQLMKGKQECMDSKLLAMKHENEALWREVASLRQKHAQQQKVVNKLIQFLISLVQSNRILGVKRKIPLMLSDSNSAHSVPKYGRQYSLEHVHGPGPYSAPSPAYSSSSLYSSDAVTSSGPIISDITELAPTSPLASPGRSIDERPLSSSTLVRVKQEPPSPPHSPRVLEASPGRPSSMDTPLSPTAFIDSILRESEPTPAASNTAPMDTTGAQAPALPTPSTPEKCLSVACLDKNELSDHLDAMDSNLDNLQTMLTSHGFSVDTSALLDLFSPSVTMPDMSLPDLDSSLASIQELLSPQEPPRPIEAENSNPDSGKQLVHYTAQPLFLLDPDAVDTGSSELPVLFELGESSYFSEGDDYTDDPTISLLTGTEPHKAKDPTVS

[17] = P. falciparum Dd2 growth inhibitors, dose response, SYBR Green, cherry-picked samples (AID 1159567); type: functional, cell-based
[18] = HIV-1 AD8 envelope cell-cell fusion blockers – cherry-pick, dose response (AID 652062); type: functional, cell-based;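 also: luciferase signal from cell-cell fusion driven by HIV-1 clade B AD8 Env; potency is for inhibitors of fusion seen as a drop in luminescence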
[19] = non-specific 3'UTR reporter inhibition in Clone20-Shn3RL – cell-based, Renilla luciferase, cherry-picked, counter-screen for Shn3 inhibitor project, dose response (AID 624133); type: functional
[20] = reduction of Shn3 3'UTR-driven luciferase in osteoblasts – cell-based, Clone20 osteoblasts, firefly luciferase, cherry-picked, dose response (AID 624132); type: functional;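 also: firefly luciferase luminescence from reporter carrying the Shn3 3'UTR in osteoblasts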
Protein skinhead-1 = molecular target: T4, Protein skinhead-1 (Caenorhabditis elegans, UniProt P34707); type: functional
T4 sequence (P34707 whole entry): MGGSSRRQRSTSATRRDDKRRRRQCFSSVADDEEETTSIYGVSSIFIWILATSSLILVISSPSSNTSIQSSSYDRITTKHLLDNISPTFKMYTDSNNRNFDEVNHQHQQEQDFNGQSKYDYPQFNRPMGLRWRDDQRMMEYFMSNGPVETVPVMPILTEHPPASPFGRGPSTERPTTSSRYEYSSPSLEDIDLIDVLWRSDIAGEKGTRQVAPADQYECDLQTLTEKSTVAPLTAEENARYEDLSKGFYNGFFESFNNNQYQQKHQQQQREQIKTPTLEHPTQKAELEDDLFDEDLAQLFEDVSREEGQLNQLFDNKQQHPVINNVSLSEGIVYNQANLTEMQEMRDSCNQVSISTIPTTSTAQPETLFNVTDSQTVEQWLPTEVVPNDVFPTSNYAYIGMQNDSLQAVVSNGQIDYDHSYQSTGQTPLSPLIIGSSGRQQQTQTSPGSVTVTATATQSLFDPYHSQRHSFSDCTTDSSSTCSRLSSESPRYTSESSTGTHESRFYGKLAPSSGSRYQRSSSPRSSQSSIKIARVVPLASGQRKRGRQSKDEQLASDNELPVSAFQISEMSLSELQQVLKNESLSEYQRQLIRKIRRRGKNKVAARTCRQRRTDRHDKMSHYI

P388/ADR = assay: cells; type: functional; conditions: Mus musculus
[21] = loss of viability in HepG2 cells – cell-based, CellTiter-Glo, cherry-picked, cytotoxicity control for Shn3 inhibitor project, dose response (AID 624134); type: functional
P388 = assay: cells; type: functional; conditions: Mus musculus
Paired box protein Pax-8 = Paired box protein Pax-8 (Homo sapiens, UniProt Q06710); assay: PAX8 transcriptional activity inhibition in RMG-I – RMG-I cells, luciferase, cherry-pick, dose response (AID 687027); type: functional, cell-based;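 also: luciferase reporter driven by Pax8 target thyroperoxidase promoter measured by SteadyGlo luminescence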
SN12K1 = assay: cells; type: functional; conditions: Homo sapiens

Chain of 5-hydroxytryptamine receptor 2A (P35363 whole entry): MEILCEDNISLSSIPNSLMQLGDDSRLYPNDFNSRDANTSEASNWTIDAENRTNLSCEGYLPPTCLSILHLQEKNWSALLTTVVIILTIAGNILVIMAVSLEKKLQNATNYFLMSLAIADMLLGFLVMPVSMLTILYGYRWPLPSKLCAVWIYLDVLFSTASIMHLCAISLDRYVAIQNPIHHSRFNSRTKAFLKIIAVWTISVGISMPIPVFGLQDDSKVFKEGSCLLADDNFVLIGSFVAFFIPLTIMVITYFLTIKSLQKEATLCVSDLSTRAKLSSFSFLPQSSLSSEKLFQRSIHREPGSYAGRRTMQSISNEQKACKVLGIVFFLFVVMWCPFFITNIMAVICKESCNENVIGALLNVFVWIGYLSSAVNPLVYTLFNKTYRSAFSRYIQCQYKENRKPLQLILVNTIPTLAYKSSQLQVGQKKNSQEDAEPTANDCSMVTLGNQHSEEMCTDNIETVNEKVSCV
Chain of Mu-type opioid receptor (P35372 whole entry): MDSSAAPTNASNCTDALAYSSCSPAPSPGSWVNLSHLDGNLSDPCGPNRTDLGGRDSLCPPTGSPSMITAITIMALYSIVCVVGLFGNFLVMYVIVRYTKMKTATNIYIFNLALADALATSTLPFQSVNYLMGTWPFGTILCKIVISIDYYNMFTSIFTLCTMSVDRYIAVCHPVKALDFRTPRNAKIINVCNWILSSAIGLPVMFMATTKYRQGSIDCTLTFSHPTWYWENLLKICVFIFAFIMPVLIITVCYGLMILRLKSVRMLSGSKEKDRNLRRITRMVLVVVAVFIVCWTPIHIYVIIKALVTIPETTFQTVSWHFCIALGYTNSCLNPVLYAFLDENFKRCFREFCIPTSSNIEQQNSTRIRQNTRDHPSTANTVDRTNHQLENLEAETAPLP
Chain of NAD-dependent protein deacylase sirtuin-5, mitochondrial (Q9NXA8 whole entry): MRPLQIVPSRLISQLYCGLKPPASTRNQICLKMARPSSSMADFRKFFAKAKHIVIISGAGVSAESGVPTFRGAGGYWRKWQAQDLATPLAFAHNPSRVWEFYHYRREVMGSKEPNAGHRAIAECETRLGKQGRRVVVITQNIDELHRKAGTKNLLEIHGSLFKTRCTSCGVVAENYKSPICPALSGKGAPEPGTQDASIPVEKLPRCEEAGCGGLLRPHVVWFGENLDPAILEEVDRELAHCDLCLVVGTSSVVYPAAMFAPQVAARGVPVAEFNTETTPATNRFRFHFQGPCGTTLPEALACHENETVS
Chain of Paired box protein Pax-8 (Q06710 whole entry): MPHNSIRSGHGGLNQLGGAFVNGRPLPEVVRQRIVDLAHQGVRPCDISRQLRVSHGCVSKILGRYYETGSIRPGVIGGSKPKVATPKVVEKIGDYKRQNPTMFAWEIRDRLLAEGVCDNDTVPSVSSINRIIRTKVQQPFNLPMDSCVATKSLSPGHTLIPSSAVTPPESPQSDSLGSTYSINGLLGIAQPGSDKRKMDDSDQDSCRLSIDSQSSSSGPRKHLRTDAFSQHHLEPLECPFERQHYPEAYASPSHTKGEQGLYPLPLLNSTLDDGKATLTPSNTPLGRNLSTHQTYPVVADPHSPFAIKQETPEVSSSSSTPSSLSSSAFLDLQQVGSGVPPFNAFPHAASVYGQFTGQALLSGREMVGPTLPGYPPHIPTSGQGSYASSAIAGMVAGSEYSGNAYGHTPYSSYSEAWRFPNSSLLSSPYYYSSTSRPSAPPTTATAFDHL

With CCCCCCOC(=O)c1cccnc1 the IC50 [1] was > 20 µM (inactive), the IC50 [2] was > 20 µM (inactive) and the IC50 [3] was > 20 µM (inactive). For the same compound, the IC50 [4] was > 20 µM (inactive), the IC50 [5] was > 20 µM (inactive) and the IC50 [6] was > 20 µM (inactive). For the same compound, the IC50 [7] was > 20 µM (inactive) and the IC50 [8] was > 20 µM (inactive).
In the case of Cc1ccc(C2Oc3ccccc3C3=C2C(c2cccs2)n2ncnc2N3)cc1 (centres undefined), the EC50 (Streptococcus) was 7.1 µM (active), the AC50 [9] was 14.1 µM (active) and the EC50 (Streptokinase A) was > 150 µM (not active). For the same compound, the EC50 [10] was 2.7 µM (active), the AC50 [11] was 31.7 µM (active) and the AC50 [12] was 9.29 µM (active).
For O=C(Cn1c(=O)oc2ccccc21)Nc1cccc(Cl)c1, the AC50 [13] was > 30 µM (inactive).
In the case of Brc1cccc(CN2CCN(c3ncccn3)CC2)c1, the EC50 [14] was 0.352 µM (active) and the EC50 (Mu-type opioid receptor) was 92.5 µM (inactive).
In the case of Cc1cccc(NC(=O)CN2C(=O)N/C(=C/c3cc(C)n(C(C)C)c3C)C2=O)c1, the AC50 [15] was 7.01 µM (active) and the EC50 [16] was > 195 µM (not active).
With O=C(CN1CCN(c2ccccn2)CC1)Nc1cccc(S(=O)(=O)N2CCCC2)c1 the EC50 [14] was 9.85 µM (active) and the EC50 (Mu-type opioid receptor) was 92.5 µM (inactive).
With OC(COCc1ccc(Cl)cc1)CN1CCN(c2ccccn2)CC1 (centres undefined) the EC50 [14] was 0.819 µM (active) and the EC50 (Mu-type opioid receptor) was 92.5 µM (inactive).
With C[C@@H]1CN([C@H](C)CO)S(=O)(=O)c2ccc(C#Cc3ccccc3)cc2O[C@H]1CN(C)C(=O)C1CC1 the AC50 [17] was 7.33 µM (active), the AC50 [18] was 11.1 µM (active) and the AC50 [11] was 44.3 µM (active). For the same compound, the AC50 [12] was 2.66 µM (active).
In the case of COc1cccc(NC(=O)CN(C)CC(=O)Nc2ccc3c(c2)CCC3)c1, the AC50 [13] was > 30 µM (inactive).
With O=C1NC2C(=CC(O)C(O)C2O)c2cc3c(cc21)OCO3 (centres undefined) the AC50 [19] was 3.82 µM (active), the AC50 [20] was 2.22 µM (active) and the IC50 (Protein skinhead-1) was 64.3 µM (inactive). The GI50 (P388/ADR) was 0.0984 µM (active), the AC50 [21] was 53.9 µM (active) and the AC50 [9] was 3.78 µM (active). The GI50 (P388) was 0.115 µM (active), the AC50 (Paired box protein Pax-8) was 0.325 µM (active) and the AC50 [11] was 0.738 µM (active). The AC50 [12] was 2.38 µM (active) and the GI50 (SN12K1) was 0.234 µM (active).
